# Experiments:
# Drosophila melanogaster = assay: Motor activity (negative geotropic response) test in flies: rutin vs imidacloprid; type: in vivo
# Procedure: Standard methods were relied on to test motor activity and motor impairments in Drosophila melanogaster (Jimenez-Del-Rio et al. 2010. Neurochem Res 35:227-238). The method relies on the negative geotropic response (i.e. preference to walk up when standing on a wall) of insects. Four-day-old (post eclosion) D. melanogaster females were randomly assigned to one of four treatments: Control (fed on 5% sugar-water), Rutin 0.1 (fed on a solution 0.1 μM rutin in 5% sugar-water), Rutin 1 (fed on a solution 1 μM rutin in 5% sugar-water), Rutin 10 (fed on a solution 10 uM rutin in 5% sugar-water). After three days flies from each group were randomly assigned to one of two treatments: 5% sugar-water or 0.1 μM imid in 5% sugar-water. Thus, flies were in one of eight treatments: Control, Imid, Rut 0.1, Rut 0.1+Imid, Rut 1, Rut 1+Imid, Rut 10, Rut 10+Imid. Flies were exposed to their specific treatment for 22 h.
# Following standard methods, flies were transferred to a clean vial and a threshold of 5 cm from the bottom was set on the vial. The bottom of the vial was knocked on the table to assure all flies were moved to the bottom. The number of flies that crossed the threshold within 6 seconds were counted. Data were analyzed using a Chi-square with specific predictions (one-tail tests) for planned comparisons. Error associated with multiple comparisons was corrected using the False Discovery Rate-method (two stage sharpen method).
# [1] = tested on: bumblebee Bombus impatiens; assay: Olfactory conditioning of PER in bumblebees: self-administered rutin vs chronic fipronil; type: in vivo; settings: bumblebees; score 0-10; self-administered 1 μM rutin six days; 6 nM fipronil feeder for the last three days (chronic)
# Procedure: One colony of the bumblebee Bombus impatiens (Koppert Inc) was kept in laboratory conditions. Bees received pollen inside the nests and foraged to a 1M sugar-water feeder outside of the nest. Bees were collected while on the feeder and iced anesthetized to then be randomly assigned to one of four plastic containers where self-administration of one of two solutions was allowed to 10 bees out of two feeders (glass vials with 500 μL of solution each): i) 1 M sucrose water or ii) 1 μM Rutin (Sigma-Aldrich R5143) diluted in 1M sucrose water. Feeders were refilled each day for three days. On the night of the third day, one of the vials was replaced by a new one with one of two solutions: i) 1 M sucrose water or ii) 1M sucrose water+6 nM fipronil. Feeders were refilled each day for three more days, thus providing a chronic exposure to fipronil. On the night of the […] day, bees were iced anesthetized and yolked restrained in plastic pipettes. Thus, bees belonged to one of four treatments:
# Control: self-administered sucrose water for six days
# Rut: self-administered rutin for six days
# Fipro: self-administered sucrose water for three days followed by three days of self-administered sucrose water (one feeder) and fipronil (one feeder).
# Rut+Fipro: self-administered rutin for three days followed by three days of self-administered rutin (one feeder) and fipronil (one feeder).
# All bees were blind-trained using olfactory conditioning of the proboscis extension response (PER). Briefly, bees were exposed to a presentation of 1-nonanol (Sigma-Aldrich) for 10 s. After 7 s of the onset of the odor presentation, the antenna was stimulated with 1.5 M sugar-water to elicit the PER. Following the PER, the bee was allowed to drink sugar-water for 3 s. Each paired presentation was considered a training trial and each individual received eleven training trials with an average intertrial interval of 10 minutes. After training, all bees were fed 20 μL of 1M sugar water and maintained in plastic boxes for 24 h until the retention test. […] Twenty-four hours after the last training trial the bees were presented with the conditioned odor for 10 s.
# Learning for each individual was quantified as the number of conditioned PER responses across the trials. Thus, for each bee a learning score between zero and ten (0-10) was recorded.
# Multiple comparisons were then run comparing learning score relative to Control bees using a non-parametric one or two-tailed Steel Method depending upon predictions. These comparisons informed us about the predicted impairment produced by the fipronil, the predicted innocuous effect of the rutin and the potential level of protection. Error due to multiple comparisons was controlled using the False Discovery Rate method (FDR-two stage sharpened method). In all cases corrected p-values (q-values) are presented.
# Memory retention was quantified as a nominal variable (yes/no). Data were compared across treatments using a Chi-square test, followed by multiple comparisons of all treatments vs. Control. Error due to multiple comparisons was controlled using the FDR as indicated above. In all cases corrected p-values (q values) are presented.
# Latency was quantified as a continuous variable between 0.5 s and 10 s. […]
SMILES,"motor performance relative to flies in the control group (Drosophila melanogaster; 0.1 μM imid in 5% sugar-water for 22 h, flies crossing 5 cm threshold within 6 seconds)",motor performance relative to flies prophylactically receiving 0.1 μM rutin (Drosophila melanogaster; comparator rutin 0.1 μM then imid),motor performance relative to flies prophylactically receiving 1 NM rutin (Drosophila melanogaster; comparator rutin 1 μM then imid),motor performance relative to flies prophylactically receiving 10 μM rutin (Drosophila melanogaster; comparator rutin 10 μM then imid),learning score relative to Control bees [1],"protection against imidacloprid neuromotor impairment (Drosophila melanogaster; flies fed rutin 0.1, 1 or 10 μM for three days before 0.1 μM imid)"
O=[N+]([O-])NC1=NCCN1Cc1ccc(Cl)nc1 [Imidacloprid],lower performance,significantly lower,significantly lower,significantly lower,,
C[C@@H]1O[C@@H](OC[C@H]2O[C@@H](Oc3c(-c4ccc(O)c(O)c4)oc4cc(O)cc(O)c4c3=O)[C@H](O)[C@@H](O)[C@@H]2O)[C@H](O)[C@H](O)[C@H]1O [Rutin],,,,,not significantly different,protected against this impairment
